Laboratory results: article PMC8945229, “Development and Biological Characterization of a Novel Selective TrkA Agonist with Neuroprotective Properties against Amyloid Toxicity” (Biomedicines, 2022)

What was measured:
TrkA = target: T1, TrkA (Rattus norvegicus, UniProt P35739); experiment: TrkA phosphorylation in PC12 cells (IP with TrkA antibody, Western blot against phosphorylated Tyrosine); format: cell-based
T1 construct: we used PC12 cells, a cell line that express TrkA and p75^NTR; host or cells: PC12
Method: For immunoprecipitation experiments PC12 or HEK293T, cells were used when at 70–80% confluent. […] Cells were then lysed in Pierce™ IP Lysis Buffer (87788, Thermo Fischer Scientific, Waltham, MA, USA) containing proteases (539138, Calbiochem, Darmstadt, Germany) and phosphatase inhibitors (524629, Calbiochem, Darmstadt, Germany). Lysates were then immunoprecipitated overnight at 4 °C with TrkA antibody (1:100, 06-574, Sigma-Aldrich, St. Louis, MO, USA) (Table S1) or p75^NTR antibody (1:100, ab6172, Abcam plc., Cambridge, UK) followed by 4 h incubation with protein G-plus agarose beads (sc-2002, Santa Cruz Biotechnology, Inc., Dallas, TX, USA). Beads were then collected, washed 3X with lysis buffer, resuspended in SDS loading buffer and subjected to Western blot against phosphorylated Tyrosine (1:1000, BAM1676, R&D Systems, Inc., Minneapolis, MN, USA) or Traf6 antibody (1:2000, ab33915, Abcam, plc., Cambridge, UK). Whole cell lysates were subjected to Western blot against TrkA (1:1000, 06-574, Sigma-Aldrich, St. Louis, MO, USA), phosphorylated TrkB (1:1000, ABN1381, Sigma-Aldrich, St. Louis, MO, USA), phosphorylated TrkC (1:1000, STJ90960, St John’s Laboratory, Ltd., London, UK), TrkB (1:1000, 07-225-I, Sigma-Aldrich, St. Louis, MO, USA), TrkC (1:1000, C44H5, Cell Signaling Technology, Danvers, MA, USA), p75 (1:1000, 839701, Biolegend, Inc., San Diego, CA, USA), Traf6 (1:2000, ab33915, Abcam, plc., Cambridge, UK) phosphorylated Akt (1:1000, 9721S, Cell Signaling Technology, Danvers, MA, USA), phosphorylated Erk1/2 (1:1000, 9101S, Cell Signaling Technology, Danvers, MA, USA), total Akt (1:1000, 4691S Cell Signaling Technology, Danvers, MA, USA) and total Erk1/2 (1:1000, 4695S, Cell Signaling Technology, Danvers, MA, USA).

CYP2B6 = target: T2, CYP2B6 (Homo sapiens, UniProt P20813); experiment: Isozyme-specific CYP450 inhibition (Baculosomes); format: in vitro ADME; conditions: 1 μM, 60 min
T2 construct: purchased Thermo Fisher Scientific; host or cells: Baculosomes (microsomes of baculovirus-infected insect cells: own knowledge)
Method: (§1) Baculosomes® expressing CYP1A2, CYP2A6, CYP2B6, CYP2C9, CYP2C19, CYP2D6 and CYP3A4 human CYP450 isoenzymes were purchased from Thermo Fisher Scientific (Waltham, MA, USA). All reagents were handled and prepared according to the manufacturer’s protocol. ENT-A013 was tested at 1 μM. Enzymatic activity in the presence of ΕΝΤ-A013 was assessed based on the kinetic model for CYP1A2, CYP2A6, CYP2B6, CYP2C9, CYP2C19, CYP2D6 and CYP3A4 isoforms. Reactions took place in triplicates at 20 °C. Glucose-6-phosphate at 333 mM and glucose-6-phosphate-dehydrogenase at 30 U/mL in 100 mM potassium phosphate, pH 8.0 (regeneration system) converted NADP^+ (10 mM in 100 mM potassium phosphate, pH 8.0) into NADPH to initiate the CYP450 reaction. Upon the addition of the fluorescent substrate, immediately (<2 min), the fluorescence signal was monitored over time at suitable excitation and emission wavelengths by Lionheart FX (BioTek, Winooski, VT, USA) (Table S2). CYP450 inhibition (%) was determined based on the reaction rates (fluorescence intensity changes per unit time). A total of n = 60 measurements per minute were acquired for a total time of t = 60 min. % Inhibition= (1 − X/A) × 100%(1) where: X is the rate observed in the presence of test-compound; A is the rate observed in the presence of negative (solvent, DMSO) control.

CYP2D6 = target: T3, CYP2D6 (Homo sapiens, UniProt P10635); experiment: Isozyme-specific CYP450 inhibition (Baculosomes); format: in vitro ADME; conditions: 1 μM, 60 min
T3 construct: purchased Thermo Fisher Scientific; host or cells: Baculosomes (microsomes of baculovirus-infected insect cells: own knowledge)
Method: as §1

CYP1A2 = target: T4, CYP1A2 (Homo sapiens, UniProt P05177); experiment: Isozyme-specific CYP450 inhibition (Baculosomes); format: in vitro ADME; conditions: 1 μM, 60 min
T4 construct: purchased Thermo Fisher Scientific; host or cells: Baculosomes (microsomes of baculovirus-infected insect cells: own knowledge)
Method: as §1

CYP2C9 = target: T5, CYP2C9 (Homo sapiens, UniProt P11712); experiment: Isozyme-specific CYP450 inhibition (Baculosomes); format: in vitro ADME; conditions: 1 μM, 60 min
T5 construct: purchased Thermo Fisher Scientific; host or cells: Baculosomes (microsomes of baculovirus-infected insect cells: own knowledge)
Method: as §1

phosphorylated JNK = experiment: JNK phosphorylation in primary hippocampal neurons treated with oligomeric Aβ (Western blot); format: cell-based, mouse; conditions: 500 nM every 24 h, 48 h
Method: treated with ENT-A013 (500nM) or Neurotrophin-3 (100ng/ml) for 30’ and then subjected to Western Blot against phosphorylated TrkC, Akt and Erk1/2. […]
phosphorylated any of those. (D) CellTox assay was performed in NIH-3T3-TrkB cells that were starved from serum and treated with ENT-A013 or BDNF for 24hrs. Quantification (E) […]
negative control (Serum Free).
Supplementary Figure S3: Primary DRG neurons were cultured in the presence of ENT-A013 (500nM, supplemented every 48hrs) and a neutralizing antibody against NGF for 5 days and then neurite length was measured by immunostaining against Tuj1 .
Supplementary Figure S4: Primary hippocampal neurons at 14-16 DIV were treated with oligomeric Aβ and in the presence of ENT-A013 (500nM, supplemented every 24hrs) for 48hrs and then were subjected to Western Blot against phosphorylated JNK. A representative blot […]

T1 sequence (P35739 33-799): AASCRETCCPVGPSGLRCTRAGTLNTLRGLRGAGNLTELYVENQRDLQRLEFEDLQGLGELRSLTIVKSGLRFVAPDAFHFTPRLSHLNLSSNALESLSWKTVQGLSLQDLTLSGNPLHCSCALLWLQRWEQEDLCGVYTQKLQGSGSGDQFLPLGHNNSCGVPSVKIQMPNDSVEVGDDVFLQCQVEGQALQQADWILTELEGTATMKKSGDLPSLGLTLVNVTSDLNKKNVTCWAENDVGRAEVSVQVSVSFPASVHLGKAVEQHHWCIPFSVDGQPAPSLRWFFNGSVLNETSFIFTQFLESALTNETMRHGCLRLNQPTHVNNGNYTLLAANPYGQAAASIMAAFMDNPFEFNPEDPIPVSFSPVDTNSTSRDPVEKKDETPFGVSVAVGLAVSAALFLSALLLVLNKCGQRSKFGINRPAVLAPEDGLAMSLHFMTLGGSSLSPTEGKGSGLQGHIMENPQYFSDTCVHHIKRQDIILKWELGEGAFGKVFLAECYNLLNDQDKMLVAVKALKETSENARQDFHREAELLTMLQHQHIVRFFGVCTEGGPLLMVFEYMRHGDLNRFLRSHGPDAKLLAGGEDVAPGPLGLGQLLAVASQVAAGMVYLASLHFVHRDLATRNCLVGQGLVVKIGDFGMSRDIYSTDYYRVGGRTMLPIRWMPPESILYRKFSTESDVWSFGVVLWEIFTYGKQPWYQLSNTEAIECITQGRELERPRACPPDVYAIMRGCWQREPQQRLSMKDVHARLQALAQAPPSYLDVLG
T3 sequence (P10635 whole entry): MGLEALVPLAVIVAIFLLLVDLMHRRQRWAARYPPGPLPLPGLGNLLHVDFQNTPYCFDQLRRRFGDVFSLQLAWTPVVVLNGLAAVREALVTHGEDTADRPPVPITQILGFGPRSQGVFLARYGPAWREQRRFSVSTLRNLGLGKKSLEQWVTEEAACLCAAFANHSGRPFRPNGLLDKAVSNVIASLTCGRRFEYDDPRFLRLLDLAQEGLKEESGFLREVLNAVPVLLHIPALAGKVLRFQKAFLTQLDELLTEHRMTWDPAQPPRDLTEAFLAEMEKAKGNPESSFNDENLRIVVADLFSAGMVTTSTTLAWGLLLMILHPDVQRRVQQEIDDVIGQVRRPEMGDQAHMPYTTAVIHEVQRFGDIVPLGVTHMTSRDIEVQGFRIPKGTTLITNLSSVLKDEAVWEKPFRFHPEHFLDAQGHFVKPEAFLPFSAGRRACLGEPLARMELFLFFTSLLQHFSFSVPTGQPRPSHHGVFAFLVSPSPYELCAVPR
T5 sequence (P11712 whole entry): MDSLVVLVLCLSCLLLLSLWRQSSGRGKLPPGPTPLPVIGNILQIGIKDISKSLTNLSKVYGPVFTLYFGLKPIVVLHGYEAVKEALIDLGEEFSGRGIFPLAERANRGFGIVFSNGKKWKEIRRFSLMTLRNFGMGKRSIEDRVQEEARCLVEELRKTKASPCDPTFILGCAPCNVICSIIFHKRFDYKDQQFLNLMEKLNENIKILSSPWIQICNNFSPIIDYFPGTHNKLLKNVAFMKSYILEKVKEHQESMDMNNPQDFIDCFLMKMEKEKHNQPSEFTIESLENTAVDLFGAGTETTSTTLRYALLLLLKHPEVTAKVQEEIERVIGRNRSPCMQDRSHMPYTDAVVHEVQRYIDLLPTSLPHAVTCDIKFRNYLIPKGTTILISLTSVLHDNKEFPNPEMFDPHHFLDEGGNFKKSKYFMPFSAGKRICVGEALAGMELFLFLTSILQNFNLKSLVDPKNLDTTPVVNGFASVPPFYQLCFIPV
T2 sequence (P20813 whole entry): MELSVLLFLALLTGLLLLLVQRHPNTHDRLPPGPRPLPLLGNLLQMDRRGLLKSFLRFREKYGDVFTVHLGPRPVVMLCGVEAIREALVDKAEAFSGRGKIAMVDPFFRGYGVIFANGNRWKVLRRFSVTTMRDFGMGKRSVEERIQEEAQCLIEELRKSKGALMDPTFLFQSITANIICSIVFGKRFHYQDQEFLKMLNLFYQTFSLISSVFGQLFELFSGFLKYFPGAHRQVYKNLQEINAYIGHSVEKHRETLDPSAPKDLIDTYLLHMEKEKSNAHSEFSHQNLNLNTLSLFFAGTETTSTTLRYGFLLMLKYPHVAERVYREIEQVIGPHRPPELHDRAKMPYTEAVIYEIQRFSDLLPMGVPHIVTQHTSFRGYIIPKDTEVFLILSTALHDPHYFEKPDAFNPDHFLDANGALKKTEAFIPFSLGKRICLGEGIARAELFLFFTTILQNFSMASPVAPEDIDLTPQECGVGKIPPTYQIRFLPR
T4 sequence (P05177 2-516 limits assumed): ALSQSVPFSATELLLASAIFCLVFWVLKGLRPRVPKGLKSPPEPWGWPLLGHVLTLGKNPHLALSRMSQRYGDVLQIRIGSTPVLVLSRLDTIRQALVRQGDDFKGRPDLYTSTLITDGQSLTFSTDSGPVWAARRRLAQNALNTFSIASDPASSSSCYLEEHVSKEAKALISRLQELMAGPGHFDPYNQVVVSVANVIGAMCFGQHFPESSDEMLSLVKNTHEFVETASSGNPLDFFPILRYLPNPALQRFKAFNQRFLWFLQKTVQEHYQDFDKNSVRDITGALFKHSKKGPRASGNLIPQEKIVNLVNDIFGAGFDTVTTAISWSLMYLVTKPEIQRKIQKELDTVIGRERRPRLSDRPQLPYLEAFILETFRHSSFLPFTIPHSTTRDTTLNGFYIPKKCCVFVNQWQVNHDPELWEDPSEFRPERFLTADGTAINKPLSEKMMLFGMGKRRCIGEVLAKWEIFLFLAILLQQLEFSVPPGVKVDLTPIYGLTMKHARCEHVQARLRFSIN

Compound: CC12CCC(O)CC1=CCC1C2CCC2(C)C1CCC21CC1C=CBr [ENT-A013, (2′R,3S,17S)-2′-(2-Bromovinyl)-5-Androstene-17,1′-Cyclopropan-3-ol]
- time TrkA phosphorylation is sustained after treatment (TrkA; PC12 cells, 10, 30 or 60′ treatment): up to 1 hr
- TrkA phosphorylation (TrkA; PC12 cells, compound 500 nM or NGF 100 ng/mL, 30′): 2.05 ± 0.21 % of control FC
- CYP450 inhibition (in words) (CYP2B6): weak inhibitor
- CYP450 inhibition (in words) (CYP2D6): moderate inhibition
- CYP450 inhibition (in words) (CYP1A2): weak inhibitor
- CYP450 inhibition (in words) (CYP2C9): weak inhibitor
- phosphorylated JNK levels (in words) (phosphorylated JNK): reduced phosphorylated JNK levels similar to untreated control cells
